Test results published in paper PMC8867149, “Phosphorylated and Phosphonated Low‐Complexity Protein Segments for Biomimetic Mineralization and Repair of Tooth Enamel” (Advanced Science, 2022).
Non-standard residues stand in square brackets, D forms with d. Residues, ends and D or L forms follow the SMILES beside them. pS = N[C@@H](COP(=O)(O)O)C(=O)O

Molecular target: T1, Alkaline phosphatase, calf intestinal (ALP) (Bos taurus, UniProt P19111)
T1 construct: purchased New England BioLabs (printed 'NEW ENGLANK BioLabs Inc.') M0290
Experiment: Stability of phosphate/phosphonate group in the presence of ALP (HPLC)
Assay type: in vitro ADME
Settings: 10 U mL^−1 ALP (calf intestinal), half an hour; peptide assemblies; HPLC read-out
Description: Figure 2 Characterization of LCPSs and their self‐assembly. a) FTIR characterization of different molecular structures among the LCPS peptides with a concentration of 10 mg mL^−1 LCPS assembly solution. b) Negatively stained TEM images showing the self‐assembled structures of LCPS‐OH, LCPS‐OP, and LCPS‐CP at pH 3.0, 5.0, 7.0, and 9.0. c) Zeta potential values of LCPSs at pH 7. The data are the means ± SD (n = 3 repeats per group). d) CD spectra of LCPS‐OH, LCPS‐OP, and LCPS‐CP assembly solutions (10 mg mL^−1) at pH 7. Self‐assembly of e) LCPS‐OP and f) LCPS‐CP after the addition of ALP. g) HPLC charts chromatograms of LCPS solutions with or without the addition of ALP. The LCPSs were incubated with 10 U mL^−1 ALP for half an hour.
The aggregated peptides were mineralized in the neutral condition directly as mentioned above, in the presence of 10 U mL^−1 ALP (calf‐intestinal). After assembling, 10 µL of the peptide assembly solution was diluted with equal volume of ddH2O. Then, 100 µL of the 1.35 × 10^−3 M CaCl2 solution containing 10 U mL^−1 ALP was added into the peptide assembly solution, and the resultant mixed solution was vibrated for 1 h to ensure the binding of calcium ions with the peptide aggregates. Next, 100 µL of the 0.81 × 10^−3 M K2HPO4 solution containing 10 U mL^−1 ALP was added dropwise for about 1 h while vibrating. […]

T1 sequence (P19111 20-533): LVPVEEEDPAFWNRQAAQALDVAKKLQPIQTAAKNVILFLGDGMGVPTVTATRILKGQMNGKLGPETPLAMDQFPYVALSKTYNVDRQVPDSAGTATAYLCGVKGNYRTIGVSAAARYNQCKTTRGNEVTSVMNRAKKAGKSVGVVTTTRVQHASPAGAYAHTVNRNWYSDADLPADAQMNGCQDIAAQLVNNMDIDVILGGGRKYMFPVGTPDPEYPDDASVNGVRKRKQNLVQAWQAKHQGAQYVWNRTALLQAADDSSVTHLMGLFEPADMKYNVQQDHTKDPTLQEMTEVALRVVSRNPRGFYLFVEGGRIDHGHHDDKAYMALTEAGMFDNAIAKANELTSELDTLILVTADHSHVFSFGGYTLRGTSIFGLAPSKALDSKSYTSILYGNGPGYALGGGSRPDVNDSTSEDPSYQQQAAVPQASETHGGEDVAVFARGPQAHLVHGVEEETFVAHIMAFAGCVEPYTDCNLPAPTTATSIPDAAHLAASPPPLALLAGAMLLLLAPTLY

stability of phosphate/phosphonate group in the presence of ALP: completely hydrolyzed
Compound: N[C@@H](CO)C(=O)N[C@@H](Cc1ccc(O)cc1)C(=O)N[C@@H](COP(=O)(O)O)C(=O)NCC(=O)N[C@@H](Cc1ccc(O)cc1)C(=O)N[C@@H](CO)C(=O)O [LCPS‐OP] (H-SY[pS]GYS-OH)
